In patent US5462869A, “Human endothelin converting enzyme isolated from blood or placenta by hydrated density” (Nisshin Flour Milling Co., Ltd., priority 1991, dated 1995):
Each block holds one molecule with its values, some of them ahead of it. Square brackets hold non-standard residues; d marks the D form. Peptide text beside a SMILES is read from it. * marks the point of attachment. Sta = CC(C)C[C@H](N)[C@@H](O)CC(=O)O; Isovaleryl = CC(C)CC(=O)*

How the values were obtained:
Format in all cases: biochemical, human
Details in all cases: 37° C. 30 minutes, pH 7.0, untreated enzyme as 100
[1] = system: endothelin converting enzyme I; assay: Effect of inhibitors on activity of converting big endothelin-1 to endothelin-1, enzyme I
Method: (§1) 10 μl of a 100 nmol/ml big endothelin-1 solution is added to 1 ml of an enzyme solution (10 mM trishydrochloric acid-0.15M sodium chloride buffer; pH 7.0), and the enzymatic reaction is carried out at 37° C. for 3 hours. After completion of the reaction, 10 μl of a 0.1M EDTA solution is added thereto to discontinue the reaction. Thereafter, the resultant endothelin-1 is assayed according to the sandwich-EIA method. An enzymatic activity of converting 1 pmol of big endothelin-1 to endothelin-1 per hour under the above-described reaction conditions is termed 1 U (unit).
(§2) A sample and a predetermined concentration of endothelin standard solution are respectively applied to a 96-hole microplate on which ani-endothelin monoclonal antibody is immobilized to thereby cause the […]. […] Then, biotin-labeled anti-endothelin polyclonal antibody and peroxydase-labeled avidin are applied thereto for reaction. After washing the microplate, activity of bound peroxydase is assayed. Endothelin concentration in the sample is assayed based on the calibration curve drawn by using endothelin standard solutions having predetermined concentrations of endothelin.
(§3) The enzymes of the invention were tested for the effects of various inhibitors against the activity of converting big endothelin-1 to endothelin-1.
(§4) Each of the enzymes is incubated in 100 μl of a reaction solution (10 mM tris-hydrochloric acid-0.15M sodium chloride buffer; pH 7.0) containing various inhibitors at 37° C. for 30 minutes, and the residual enzymatic activity is measured in the above-described manner.

[2] = system: endothelin converting enzyme II; assay: Effect of inhibitors on activity of converting big endothelin-1 to endothelin-1, enzyme II
Method: as §1, §2, §3, §4

[3] = system: endothelin converting enzyme III; assay: Effect of inhibitors on activity of converting big endothelin-1 to endothelin-1, enzyme III
Method: as §1, §2, §3, §4

[4] = system: endothelin converting enzyme IV; assay: Effect of inhibitors on activity of converting big endothelin-1 to endothelin-1, enzyme IV
Method: as §1, §2, §3, §4

Relative Activity (%) ([1]; inhibitor 0.5 mM): 10% | Relative Activity (%) ([2]; inhibitor 0.5 mM): 5% | Relative Activity (%) ([3]; inhibitor 0.5 mM): 7% | Relative Activity (%) ([4]; inhibitor 0.5 mM): 8%
Structure (SMILES): c1cnc2c(c1)ccc1cccnc12 [1,10-Phenanthroline]

Relative Activity (%) ([1]; inhibitor 0.01 mM): 99% | Relative Activity (%) ([2]; inhibitor 0.01 mM): 100% | Relative Activity (%) ([3]; inhibitor 0.01 mM): 99% | Relative Activity (%) ([4]; inhibitor 0.01 mM): 97%
Structure (SMILES): CC(C)CC(=O)N[C@H](C(=O)N[C@H](C(=O)N[C@@H](CC(C)C)[C@@H](O)CC(=O)N[C@@H](C)C(=O)N[C@@H](CC(C)C)[C@@H](O)CC(=O)O)C(C)C)C(C)C [Pepstatin A] (Isovaleryl-VV[Sta]A[Sta]-OH)

Relative Activity (%) ([1]; inhibitor 0.1 mM): 1% | Relative Activity (%) ([2]; inhibitor 0.1 mM): 2% | Relative Activity (%) ([3]; inhibitor 0.1 mM): 1% | Relative Activity (%) ([4]; inhibitor 0.1 mM): 3%
Structure (SMILES): CC(C)C[C@H](NP(=O)(O)O[C@@H]1O[C@@H](C)[C@H](O)[C@@H](O)[C@H]1O)C(=O)N[C@@H](Cc1c[nH]c2ccccc12)C(=O)O [Phosphoramidon]
